Experimental data published in patent publication US8552021B2, “Phosphoramidate derivatives of nucleosides” (Janssen Products, L.P., priority 2009, dated 2013).
Read-outs that look alike come from different tables or passages of the source.

Columns and labels:
Type in all cases: cell-based
[1] = tested on: HCV type 1b replicon in Huh-7 luc/neo (Huh-Luc) cells; assay: HCV replicon assay (Huh-Luc luciferase); settings: three days incubation, luciferase activity, average where tested more than once, read-out: EC50 1b ET
From the text: The compounds of formula I are examined for activity in the inhibition of HCV RNA replication in a cellular assay. […] The cellular assay can be based on a bicistronic expression construct, as described by Lohmann et al. (1999) Science vol. 285 pp. 110-113 with modifications described by Krieger et al. (2001) Journal of Virology 75: 4614-4624, in a multi-target screening strategy. The Bartenschlager replicon assays are available commercially from ReBLikon GmbH in Mainz, Germany.
In essence, the method is as follows.
The assay utilized the stably transfected cell line Huh-7 luc/neo (hereafter referred to as Huh-Luc). This cell line harbors an RNA encoding a bicistronic expression construct comprising the wild type NS3—NS5B regions of HCV type 1b translated from an Internal Ribosome Entry Site (IRES) from encephalomyocarditis virus (EMCV), preceded by a reporter portion (FfL-luciferase), and a selectable marker portion (neo^R, neomycine phosphotransferase). The construct is bordered by 5′ and 3′ NTRs (non-translated regions) from HCV type lb. Continued culture of the replicon cells in the presence of G418 (neo^R) is dependent on the replication of the HCV RNA. The stably transfected replicon cells that express HCV RNA, which replicates autonomously and to high levels, encoding inter alia luciferase, are used for screening the antiviral compounds.
The replicon cells were plated in well plates in the presence of the test and control compounds, which were added in various concentrations. Following an incubation of three days, HCV replication was measured by assaying luciferase activity (using standard luciferase assay substrates and reagents and a Perkin Elmer ViewLux™ ultraHTS microplate imager). Replicon cells in the control cultures have high luciferase expression in the absence of any inhibitor. The inhibitory activity of the compound on luciferase activity was monitored on the Huh-Luc cells, enabling a dose-response curve for each test compound. EC50 values were then calculated, which value represents the amount of the compound required to decrease by 50% the level of detected luciferase activity, or more specifically, the ability of the genetically linked HCV replicon RNA to replicate. Where a compound of formula (I) was tested more than once in the replicon assay, the average of all test results is given in Table 1.

Huh-7 = assay: Cytotoxicity CC50 in Huh-7; settings: Huh-7 cells
From the text: (§1) The in vitro antiviral activity against HCV of the compounds of formula I can be tested in a cellular HCV replicon system based on Lohmann et al. (1999) Science 285:110-113, with the further modifications described by Krieger et al. (2001) Journal of Virology 75: 4614-4624 (incorporated herein by reference), which is further exemplified in the examples section. This model, while not a complete infection model for HCV, is widely accepted as the most robust and efficient model of autonomous HCV RNA replication currently available. […] It will be appreciated that it is important to distinguish between compounds that specifically interfere with HCV functions from those that exert cytotoxic or cytostatic effects in the HCV replicon model, and as a consequence cause a decrease in HCV RNA or linked reporter enzyme concentration. Assays are known in the field for the evaluation of cellular cytotoxicity based for example on the activity of mitochondrial enzymes using fluorogenic redox dyes such as resazurin. Furthermore, cellular counter screens exist for the evaluation of non-selective inhibition of linked reporter gene activity, such as firefly luciferase. Appropriate cell types can be equipped by stable transfection with a luciferase reporter gene whose expression is dependent on a constitutively active gene promoter, and such cells can be used as a counter-screen to eliminate non-selective inhibitors.

[2] = Cytotoxicity CC50 in Huh-7; settings: human; Huh-7 cells
From the text: as §1

CCCC(CCC)COC(=O)C(C)NP(=O)(OCC1(N=[N+]=[N-])OC(n2ccc(=O)[nH]c2=O)C(C)C1O)Oc1ccccc1 (mixture of isomers) [Compound I-3]
EC50 [1]: 8.06 µM
CC50 (Huh-7): 30.7 µM

CCOC(=O)C(C)NP(=O)(OCC1(N=[N+]=[N-])OC(n2ccc(=O)[nH]c2=O)C(C)C1O)Oc1cc(C)c(Cl)cc1C(C)C (mixture of isomers) [Compound I-24]
EC50 [1]: 37.7 µM
CC50 (Huh-7): 55 µM

C[C@@H]1[C@H](n2cc(I)c(=O)[nH]c2=O)O[C@@](COP(=O)(N[C@@H](C)C(=O)OCc2ccccc2)Oc2ccccc2)(N=[N+]=[N-])[C@H]1O (stereo partly shown) [Compound I-25]
EC50 ([1]; Hepatitis C virus, Huh-7, 72 h): 57.3 µM
CC50 [2]: > 98.3 µM

CCOC(=O)[C@H](C)NP(=O)(OC[C@@]1(N=[N+]=[N-])O[C@@H](n2ccc(=O)[nH]c2=O)[C@@H](C)[C@@H]1O)Oc1ccccc1 (single isomer, unassigned) [Compound I-17]
EC50 [1]: 17.3 µM
CC50 (Huh-7): > 98.3 µM

CCCCOC(=O)C(CC)NP(=O)(OC[C@@]1(N=[N+]=[N-])O[C@@H](n2ccc(=O)[nH]c2=O)[C@@H](C)[C@@H]1O)Oc1ccccc1 (stereo partly shown) [Compound I-20]
EC50 ([1]; Hepatitis C virus, Huh-7, 72 h): 28 µM
CC50 [2]: > 73.9 µM

CCC(NP(=O)(O)OC[C@@]1(N=[N+]=[N-])O[C@@H](n2ccc(=O)[nH]c2=O)[C@@H](C)[C@@H]1O)C(=O)OCc1ccccc1 (stereo partly shown) [Compound I-33]
EC50 ([1]; Hepatitis C virus, Huh-7, 72 h): > 98.4 µM

CCCCOC(=O)C(C)(C)NP(=O)(O)OC[C@@]1(N=[N+]=[N-])O[C@@H](n2ccc(=O)[nH]c2=O)[C@@H](C)[C@@H]1O [Compound I-32]
EC50 ([1]; Hepatitis C virus, Huh-7, 72 h): > 98.4 µM

CCCCCOC(=O)C(C)NP(=O)(OC[C@@]1(N=[N+]=[N-])O[C@@H](n2ccc(=O)[nH]c2=O)[C@@H](C)[C@@H]1O)Oc1ccccc1 (stereo partly shown) [Compound I-5]
EC50 ([1]; Hepatitis C virus, Huh-7, 72 h): 9.48 µM
CC50 [2]: > 98.3 µM

COCCOC(=O)C(C)NP(=O)(OCC1(N=[N+]=[N-])OC(n2ccc(=O)[nH]c2=O)C(C)C1O)Oc1ccccc1 (mixture of isomers) [Compound I-23]
EC50 [1]: 32.1 µM
CC50 (Huh-7): > 98.3 µM

CCCC(CCC)COC(=O)C(C)NP(=O)(OCC1(N=[N+]=[N-])OC(n2ccc(=O)[nH]c2=O)C(C)C1O)Oc1ccc(Cl)cc1 (mixture of isomers) [Compound I-15]
EC50 [1]: 15.3 µM
CC50 (Huh-7): > 100 µM

CC(NP(=O)(OC[C@@]1(N=[N+]=[N-])O[C@@H](n2ccc(=O)[nH]c2=O)[C@@H](C)[C@@H]1O)Oc1ccccc1)C(=O)OC1CCCC1 (stereo partly shown) [Compound I-6]
EC50 ([1]; Hepatitis C virus, Huh-7, 72 h): 10.5 µM
CC50 [2]: > 98.3 µM

CCC(NP(=O)(OC[C@@]1(N=[N+]=[N-])O[C@@H](n2ccc(=O)[nH]c2=O)[C@@H](C)[C@@H]1O)Oc1ccccc1)C(=O)OC(C)C (stereo partly shown) [Compound I-34]
EC50 ([1]; Hepatitis C virus, Huh-7, 72 h): > 98.4 µM
CC50 [2]: > 98.4 µM

CC(C)OC(=O)C(C)NP(=O)(OC[C@@]1(N=[N+]=[N-])O[C@@H](n2ccc(=O)[nH]c2=O)[C@@H](C)[C@@H]1O)Oc1ccccc1 (stereo partly shown) [Compound I-14]
EC50 ([1]; Hepatitis C virus, Huh-7, 72 h): 14.9 µM
CC50 [2]: > 100 µM

COC(=O)C(C)NP(=O)(OC[C@@]1(N=[N+]=[N-])O[C@@H](n2ccc(=O)[nH]c2=O)[C@@H](C)[C@@H]1O)Oc1ccccc1 (stereo partly shown) [Compound I-18]
EC50 ([1]; Hepatitis C virus, Huh-7, 72 h): 27 µM
CC50 [2]: > 98.3 µM

CCCCOC(=O)C(C)NP(=O)(OC[C@@]1(N=[N+]=[N-])O[C@@H](n2ccc(=O)[nH]c2=O)[C@@H](C)[C@@H]1O)Oc1ccccc1 (stereo partly shown) [Compound I-4]
EC50 ([1]; Hepatitis C virus, Huh-7, 72 h): 9.33 µM
CC50 [2]: > 98.3 µM

CCOC(=O)[C@H](C)NP(=O)(OC[C@@]1(N=[N+]=[N-])O[C@@H](n2ccc(=O)[nH]c2=O)[C@@H](C)[C@@H]1O)Oc1ccccc1 (single isomer, unassigned) [Compound I-8]
EC50 [1]: 12 µM
CC50 (Huh-7): > 98.3 µM

CCOC(=O)C(C)NP(=O)(OCC1(N=[N+]=[N-])OC(n2ccc(=O)[nH]c2=O)C(C)C1O)Oc1ccccc1 (mixture of isomers) [Compound I-16]
EC50 [1]: 16.4 µM
CC50 (Huh-7): > 98.3 µM

CC(NP(=O)(OC[C@@]1(N=[N+]=[N-])O[C@@H](n2ccc(=O)[nH]c2=O)[C@@H](C)[C@@H]1O)Oc1ccccc1)C(=O)OCc1ccccc1 (stereo partly shown) [Compound I-1]
EC50 ([1]; Hepatitis C virus, Huh-7, 72 h): 5.95 µM
CC50 [2]: > 100 µM

CCCC(CCC)COC(=O)[C@H](C)NP(=O)(O)OC[C@@]1(N=[N+]=[N-])O[C@@H](n2ccc(=O)[nH]c2=O)[C@@H](C)[C@@H]1O [Compound I-9]
EC50 [1]: 15.8 µM

CCC(NP(=O)(O)OC[C@@]1(N=[N+]=[N-])O[C@@H](n2ccc(=O)[nH]c2=O)[C@@H](C)[C@@H]1O)C(=O)OC (stereo partly shown) [Compound I-29]
EC50 ([1]; Hepatitis C virus, Huh-7, 72 h): > 98.4 µM
CC50 [2]: > 98.4 µM

CCC(NP(=O)(OC[C@@]1(N=[N+]=[N-])O[C@@H](n2ccc(=O)[nH]c2=O)[C@@H](C)[C@@H]1O)Oc1ccccc1)C(=O)OC (stereo partly shown) [Compound I-26]
EC50 ([1]; Hepatitis C virus, Huh-7, 72 h): 74.7 µM
CC50 [2]: > 98.3 µM

CCCOC(=O)C(C)NP(=O)(O)OC[C@@]1(N=[N+]=[N-])O[C@@H](n2ccc(=O)[nH]c2=O)[C@@H](C)[C@@H]1O (stereo partly shown) [Compound I-30]
EC50 ([1]; Hepatitis C virus, Huh-7, 72 h): > 98.4 µM
CC50 [2]: > 98.4 µM

CC(NP(=O)(OCC1(N=[N+]=[N-])OC(n2ccc(=O)[nH]c2=O)C(C)C1O)Oc1cccc2ccccc12)C(=O)OCc1ccccc1 (mixture of isomers) [Compound I-11]
EC50 [1]: 13.8 µM
CC50 (Huh-7): > 100 µM

CCC(NP(=O)(OC[C@@]1(N=[N+]=[N-])O[C@@H](n2ccc(=O)[nH]c2=O)[C@@H](C)[C@@H]1O)Oc1ccccc1)C(=O)OCc1ccccc1 (stereo partly shown) [Compound I-21]
EC50 ([1]; Hepatitis C virus, Huh-7, 72 h): 29.2 µM
CC50 [2]: 81.8 µM

CC(NP(=O)(OC[C@@]1(N=[N+]=[N-])O[C@@H](n2ccc(=O)[nH]c2=O)[C@@H](C)[C@@H]1O)Oc1ccccc1)C(=O)OC1CCCCC1 (stereo partly shown) [Compound I-7]
EC50 ([1]; Hepatitis C virus, Huh-7, 72 h): 11.2 µM
CC50 [2]: > 98.3 µM

CCC(NP(=O)(O)OC[C@@]1(N=[N+]=[N-])O[C@@H](n2ccc(=O)[nH]c2=O)[C@@H](C)[C@@H]1O)C(=O)OC(C)C (stereo partly shown) [Compound I-27]
EC50 ([1]; Hepatitis C virus, Huh-7, 72 h): > 98.4 µM

CCCOC(=O)C(C)NP(=O)(OC[C@@]1(N=[N+]=[N-])O[C@@H](n2ccc(=O)[nH]c2=O)[C@@H](C)[C@@H]1O)Oc1ccccc1 (stereo partly shown) [Compound I-10]
EC50 ([1]; Hepatitis C virus, Huh-7, 72 h): 12.9 µM
CC50 [2]: > 98.3 µM

CC(NP(=O)(OC[C@@]1(N=[N+]=[N-])O[C@@H](n2ccc(=O)[nH]c2=O)[C@@H](C)[C@@H]1O)Oc1ccccc1)C(=O)OC(C)(C)C (stereo partly shown) [Compound I-31]
EC50 ([1]; Hepatitis C virus, Huh-7, 72 h): > 98.4 µM
CC50 [2]: > 98.4 µM

CCCCOC(=O)C(C)(C)NP(=O)(OC[C@@]1(N=[N+]=[N-])O[C@@H](n2ccc(=O)[nH]c2=O)[C@@H](C)[C@@H]1O)Oc1ccccc1 (stereo partly shown) [Compound I-13]
EC50 ([1]; Hepatitis C virus, Huh-7, 72 h): 13.1 µM
CC50 [2]: 88.5 µM

C[C@@H]1[C@H](n2ccc(=O)[nH]c2=O)O[C@@](COP(=O)(NC(C)(C)C(=O)OCc2ccccc2)Oc2ccccc2)(N=[N+]=[N-])[C@H]1O (stereo partly shown) [Compound I-12]
EC50 ([1]; Hepatitis C virus, Huh-7, 72 h): 13.9 µM
CC50 [2]: > 100 µM

CC(C)OC(=O)C(C)(C)NP(=O)(OC[C@@]1(N=[N+]=[N-])O[C@@H](n2ccc(=O)[nH]c2=O)[C@@H](C)[C@@H]1O)Oc1ccccc1 (stereo partly shown) [Compound I-28]
EC50 ([1]; Hepatitis C virus, Huh-7, 72 h): > 98.4 µM
CC50 [2]: > 98.4 µM
